The structures appear in SMILES notation.

This assay concerns the target mGluR4 (UniProt Q14833). The assay can be described thus: mGluR4 potentiation assay: increase in response to an EC20 concentration of agonist (species not given). The format is cell-based. Conditions: EC50 for potentiation of mGluR4; table does not state human or rat. How it is done: The disclosed compounds and compositions can be evaluated for their ability to act as a potentiator of metabotropic glutamate receptor activity, in particular mGluR4 activity, by any suitable known methodology known in the art. For example, Chinese Hamster Ovary (CHO) cells transfected with human mGluR4 or […] co-transfected with rat mGluR4 and the G-protein regulated Inwardly Rectifying Potassium channel (GIRK) were plated in clear bottom assay plates for assay in a Hamamatsu FDSS Fluorometric Plate Reader. The cells were loaded with either a Ca2+-sensitive fluorescent dye or the thallium responsive dye and the plates were washed and placed into a suitable kinetic plate reader. For human mGluR4 assays, a fluorescence baseline was established for 3-5 seconds, the disclosed compounds were then added to the cells, and the response in cells was measured. Approximately two and a half minutes later, a concentration of mGluR4 orthosteric agonist (e.g. glutamate or L-AP4) eliciting approximately 20% (EC20) of the maximal agonist response was added to the cells, and the response was measured. Two minutes later, a concentration of mGluR4 agonist (e.g. glutamate or L-AP4) eliciting 80% (EC80) of the maximal agonist response was added to the cells, and the response was measured. For rat mGluR4/GIRK experiments, a baseline was established for approximately five seconds, disclosed compounds were added, and either an EC20 or EC80 concentration of agonist was added approximately two and one half minutes later. Potentiation of the agonist response of mGluR4 by the disclosed compounds was observed as an increase in response to the EC20 concentration of agonist in the presence of compound compared to the response to agonist in the absence of compound. Similarly, antagonism of the agonist response of mGluR4 by the disclosed compounds was observed as a decrease in response to the EC80 concentration of agonist in the presence of compound compared to the response to agonist in the absence of compound.
The above described assay operated in two modes. In the first mode, a range of concentrations of the disclosed compounds are added to cells, followed by a single fixed concentration of agonist. If the compound acts as a potentiator, an EC50 value for potentiation and a maximum extent of potentiation by the compound at this concentration of agonist is determined by non-linear curve fitting. If the compound acts as a noncompetitive antagonist, an IC50 value is determined by non-linear curve fitting. In the second mode, several fixed concentrations of the disclosed compounds are added to various wells on a plate, followed by a range in concentrations of agonist for each concentration of disclosed compound. The EC50 values for the agonist at each concentration of compound are determined by non-linear curve fitting. A decrease in the EC50 value of the agonist with increasing concentrations of the sample compound (a leftward shift of the agonist concentration-response curve) is an indication of the degree of mGluR4 potentiation at a given concentration of the sample compound. A decrease in the maximal response of the agonist with increasing concentrations of the sample compounds, with or without a rightward shift in agonist potency, is an indication of the degree of noncompetitive antagonism at mGluR4. The second mode also indicates whether the sample compounds also affect the maximum response to mGluR4 to agonists.
These compounds are positive allosteric modulators (potentiators) of human and rat mGluR4 and were selective for mGluR4 compared to the other seven subtypes of metabotropic glutamate receptors.
`Cn1nc(C2CC2)c2ccc(Nc3n[nH]c4cccnc34)cc21` [Example 1, N-(3-cyclopropyl-1-methyl-1H-indazol-6-yl)-1H-pyrazolo[4,3-b]pyridin-3-amine]: the EC50 turned out to be 43 nM.
The same measure for `Cn1ncc2c(Cl)cc(Nc3n[nH]c4cccnc34)cc21` [Example 2, N-(4-chloro-1-methyl-1H-indazol-6-yl)-1H-pyrazolo[4,3-b]pyridin-3-amine]: 29 nM; for `Cn1cc2c(Cl)cc(Nc3n[nH]c4cccnc34)cc2n1` [Example 3, N-(4-chloro-2-methyl-2H-indazol-6-yl)-1H-pyrazolo[4,3-b]pyridin-3-amine]: 525 nM.
On to `Cn1nc(C2CC2)c2ccc(Nc3n[nH]c4nccnc34)cc21` [Example 4, N-(3-cyclopropyl-1-methyl-1H-indazol-6-yl)-1H-pyrazolo[3,4-b]pyrazin-3-amine], for which the EC50 stood at 20 nM.
The same measure for `Cn1nc(C2CC2)c2ccc(Nc3n[nH]c4ncc(F)cc34)cc21` [Example 5, N-(3-cyclopropyl-1-methyl-1H-indazol-6-yl)-5-fluoro-1H-pyrazolo[3,4-b]pyridin-3-amine]: 364 nM.
To `Cn1ncc2c(Cl)cc(Nc3n[nH]c4ncccc34)cc21` [Example 6, N-(4-chloro-1-methyl-1H-indazol-6-yl)-1H-pyrazolo[3,4-b]pyridin-3-amine] belongs 51 nM; to `Cn1nc(C2CC2)c2ccc(Nc3n[nH]c4ccc(F)cc34)cc21` [Example 7, N-(3-cyclopropyl-1-methyl-1H-indazol-6-yl)-5-fluoro-1H-indazol-3-amine], 1230 nM.
The same measure for `Cn1ncc2c(Cl)cc(Nc3n[nH]c4nccnc34)cc21` [Example 8, N-(4-chloro-1-methyl-1H-indazol-6-yl)-1H-pyrazolo[3,4-b]pyrazin-3-amine]: 16 nM; for `Cn1ncc2c(Cl)cc(Nc3n[nH]c4ccccc34)cc21` [Example 9, N-(4-chloro-1-methyl-1H-indazol-6-yl)-1H-indazol-3-amine]: 64 nM; for `Cn1cc2c(Cl)cc(Nc3n[nH]c4nccnc34)cc2n1` [Example 10, N-(4-chloro-2-methyl-2H-indazol-6-yl)-1H-pyrazolo[3,4-b]pyrazin-3-amine]: 515 nM.
As to `Cn1nc(C2CC2)c2ccc(Nc3n[nH]c4cc(F)ccc34)cc21` [Example 11, N-(3-cyclopropyl-1-methyl-1H-indazol-6-yl)-6-fluoro-1H-indazol-3-amine], the 50% effective concentration (EC50) amounted to 4220 nM.
The same measure for `Cn1nc(C2CC2)c2ccc(Nc3n[nH]c4ccccc34)cc21` [Example 12, N-(3-cyclopropyl-1-methyl-1H-indazol-6-yl)-1H-indazol-3-amine]: 128 nM.
To `Cn1nc(C2CC2)c2ccc(Nc3n[nH]c4ncccc34)cc21` [Example 13, N-(3-cyclopropyl-1-methyl-1H-indazol-6-yl)-1H-pyrazolo[3,4-b]pyridin-3-amine] belongs 43 nM; to `Cn1nc(C2CC2)c2ccc(Nc3n[nH]c4c3CC(F)(F)CC4)cc21` [Example 14, 3-cyclopropyl-N-(5,5-difluoro-4,5,6,7-tetrahydro-1H-indazol-3-yl)-1-methyl-1H-indazol-6-amine], greater than 10000 nM.
To `Cc1nn(C)c2cc(Nc3n[nH]c4cccnc34)ccc12` [Example 15, N-(1,3-dimethyl-1H-indazol-6-yl)-1H-pyrazolo[4,3-b]pyridin-3-amine] belongs 78 nM; to `CC(C)n1nc(C2CC2)c2ccc(Nc3n[nH]c4cccnc34)cc21` [Example 16, N-(3-cyclopropyl-1-isopropyl-1H-indazol-6-yl)-1H-pyrazolo[4,3-b]pyridin-3-amine], greater than 10000 nM; to `CC(C)n1nc(C2CC2)c2ccc(Nc3n[nH]c4nccnc34)cc21` [Example 17, N-(3-cyclopropyl-1-isopropyl-1H-indazol-6-yl)-1H-pyrazolo[3,4-b]pyrazin-3-amine], greater than 10000 nM.
As to `Cc1nn(C(C)C)c2cc(Nc3n[nH]c4nccnc34)ccc12` [Example 18, N-(1-isopropyl-3-methyl-1H-indazol-6-yl)-1H-pyrazolo[3,4-b]pyrazin-3-amine], the concentration for a half-maximal effect (EC50) was greater than 10000 nM.
The same measure for `Cc1nn(C(C)C)c2cc(Nc3n[nH]c4ccccc34)ccc12` [Example 19, N-(1-isopropyl-3-methyl-1H-indazol-6-yl)-1H-indazol-3-amine]: greater than 10000 nM; for `Cc1nn(C(C)C)c2cc(Nc3n[nH]c4c3CCCC4)ccc12` [Example 20, 1-isopropyl-3-methyl-N-(4,5,6,7-tetrahydro-1H-indazol-3-yl)-1H-indazol-6-amine]: greater than 10000 nM; for `CC(=O)c1nn(C)c2cc(Nc3n[nH]c4cccnc34)ccc12` [Example 21, 1-(6-((1H-pyrazolo[4,3-b]pyridin-3-yl)amino)-1-methyl-1H-indazol-3-yl)ethan-1-one]: 764 nM.
The same measure for `[2H]C([2H])([2H])n1nc(C2CC2)c2ccc(Nc3n[nH]c4nccnc34)cc21` [Example 22, N-(3-cyclopropyl-1-(methyl-d3)-1H-indazol-6-yl)-1H-pyrazolo[3,4-b]pyrazin-3-amine]: 10 nM; for `[2H]C([2H])([2H])n1nc(C2CC2)c2ccc(Nc3n[nH]c4cccnc34)cc21` [Example 23, N-(3-cyclopropyl-1-(methyl-d3)-1H-indazol-6-yl)-1H-pyrazolo[4,3-b]pyridin-3-amine]: 36 nM; for `CCc1nn(C)c2cc(Nc3n[nH]c4cccnc34)ccc12` [Example 24, N-(3-ethyl-1-methyl-1H-indazol-6-yl)-1H-pyrazolo[4,3-b]pyridin-3-amine]: 38 nM.
The same measure for `Cn1nc(NC(=O)C(F)(F)F)c2ccc(Nc3n[nH]c4cccnc34)cc21` [Example 25, N-(6-((1H-pyrazolo[4,3-b]pyridin-3-yl)amino)-1-methyl-1H-indazol-3-yl)-2,2,2-trifluoroacetamide]: 313 nM; for `Cc1cc(Cn2ncc3ncc(Nc4n[nH]c5ccccc45)cc32)no1` [Example 26, N-(1H-indazol-3-yl)-1-((5-methylisoxazol-3-yl)methyl)-1H-pyrazolo[4,3-b]pyridin-6-amine]: greater than 10000 nM.
In the case of `c1ccc2c(Nc3cnc4cnn(CC5CCC5)c4c3)n[nH]c2c1` [Example 27, 1-(cyclobutylmethyl)-N-(1H-indazol-3-yl)-1H-pyrazolo[4,3-b]pyridin-6-amine], the EC50 was greater than 10000 nM.
The same measure for `Cn1nc(C2(C)CC2)c2ccc(Nc3n[nH]c4cccnc34)cc21` [Example 28, N-(1-methyl-3-(1-methylcyclopropyl)-1H-indazol-6-yl)-1H-pyrazolo[4,3-b]pyridin-3-amine]: 68 nM; for `Cn1nc(C2(C)CC2)c2ccc(Nc3n[nH]c4nccnc34)cc21` [Example 29, N-(1-methyl-3-(1-methylcyclopropyl)-1H-indazol-6-yl)-1H-pyrazolo[3,4-b]pyrazin-3-amine]: 25 nM.
The same measure for `Cn1nc(C2(C)CC2)c2ccc(Nc3n[nH]c4ncccc34)cc21` [Example 30, N-(1-methyl-3-(1-methylcyclopropyl)-1H-indazol-6-yl)-1H-pyrazolo[3,4-b]pyridin-3-amine]: 129 nM; for `Cn1nc(Cl)c2ccc(Nc3n[nH]c4cccnc34)cc21` [Example 31, N-(3-chloro-1-methyl-1H-indazol-6-yl)-1H-pyrazolo[4,3-b]pyridin-3-amine]: 171 nM; for `Cc1cc(Cn2ncc3c(Nc4n[nH]c5cccnc45)cccc32)no1` [Example 32, N-(1-((5-methylisoxazol-3-yl)methyl)-1H-indazol-4-yl)-1H-pyrazolo[4,3-b]pyridin-3-amine]: 571 nM.
As for `Cn1ncc2c(Nc3n[nH]c4cccnc34)cccc21` [Example 33, N-(1-methyl-1H-indazol-4-yl)-1H-pyrazolo[4,3-b]pyridin-3-amine], the EC50 is greater than 10000 nM.
The same measure for `c1cnc2c(Nc3cccc4c3cnn4CC3CCC3)n[nH]c2c1` [Example 34, N-(1-(cyclobutylmethyl)-1H-indazol-4-yl)-1H-pyrazolo[4,3-b]pyridin-3-amine]: 4300 nM.

Source of the values: US10526323B2, “Indazole and azaindazole substituted compounds as mGluR4 allosteric potentiators, compositions, and methods of treating neurological dysfunction” (Vanderbilt University, priority 2015, dated 2020).
